According to patent US20260306527A1, “PRMT INHIBITOR COMPOUNDS AND THE USES THEREOF” (Purdue Research Foundation, priority 2023, published 2026):

Legend:
Type in all cases: biochemical
PRMT3 [1] = test: SAHH-coupled fluorescence assay, inhibition of PRMT3; settings: read-out: IC50 [µM] | PRMT3
In short: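 Coupled SAHH/ThioGlo4 fluorescence read-out (ex 380 nm, em 505 nm) of PRMT3 (0.25 μM) methylation with 30 μM AdoMet and 5 μM SAHH. Buffer was 20 mM Tris pH 7.5 with 0.01% Triton X-100. Run in duplicate.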

PRMT3 [2] = molecular target: PRMT3 (Homo sapiens, UniProt O60678); test: inhibition mechanism study on PRMT3, SAHH-coupled fluorescence; parameters: PRMT3 (residues 211-531) was cloned into the pET28a-MHL expression vector; tag of the pET28a-MHL vector (not described); made in house; host or cells: Escherichia coli BL21(DE3); settings: role: inhibitor
Chain of PRMT3 (Homo sapiens, UniProt O60678) (O60678 211-531): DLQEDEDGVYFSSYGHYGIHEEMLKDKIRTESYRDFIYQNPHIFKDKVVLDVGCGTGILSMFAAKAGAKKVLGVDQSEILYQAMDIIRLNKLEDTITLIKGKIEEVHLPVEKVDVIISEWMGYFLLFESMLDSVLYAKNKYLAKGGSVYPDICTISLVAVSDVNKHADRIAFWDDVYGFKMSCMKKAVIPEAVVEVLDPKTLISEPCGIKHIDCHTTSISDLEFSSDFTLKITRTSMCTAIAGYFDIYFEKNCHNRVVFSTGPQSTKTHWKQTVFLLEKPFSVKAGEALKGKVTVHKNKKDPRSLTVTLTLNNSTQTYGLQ
Description: The inhibition mechanism of YD1113 on PRMT3 was studied with the fluorescence-based SAHH-coupled assay. Varying concentrations of SAM (from 30 to 240 μM) with 30 μM fixed concentration of H4-21 or varying concentration of H4-21 (from 15 to 240 μM) with 30 μM fixed concentration of SAM were included in reactions at concentration of YD1113 ranging from 1.5 nM to 100 μM.
All the IC50 values were determined in triplicate. Fluorescence was monitored on a BMG CLARIOstar microplate reader with excitation 380 nm and emission 505 nm. Data were processed by using GraphPad Prism software 8.0.
The sensitivity of YD1113 to the steric effects in the above SAR studies (Table 1; FIG. 9) is inexplicable by a relatively open and tolerable peptide substrate binding channel of PRMTs. (Tewary et al. 2019) This contradiction prompted the hypothesis that YD1113 binds to an alternative pocket rather than acts as a bisubstrate analogue to reach the peptide binding pocket. This hypothesis was tested by investigating its inhibition mechanism with a SAHH-coupled fluorescence-based assay. (Richardson et al. 2015) The IC50 values of YD1113 remained constant with the increased ratio of peptide/Km (FIG. 3a-b) while increasing linearly with the ratio of SAM/Km (FIG. 3c-d). […]

PRMT1 = molecular target: T1, PRMT1 (Homo sapiens, UniProt Q99873); test: SAHH-coupled fluorescence assay, inhibition of PRMT1
T1 construct: made in house
T1 sequence (Q99873 whole entry, species assumed): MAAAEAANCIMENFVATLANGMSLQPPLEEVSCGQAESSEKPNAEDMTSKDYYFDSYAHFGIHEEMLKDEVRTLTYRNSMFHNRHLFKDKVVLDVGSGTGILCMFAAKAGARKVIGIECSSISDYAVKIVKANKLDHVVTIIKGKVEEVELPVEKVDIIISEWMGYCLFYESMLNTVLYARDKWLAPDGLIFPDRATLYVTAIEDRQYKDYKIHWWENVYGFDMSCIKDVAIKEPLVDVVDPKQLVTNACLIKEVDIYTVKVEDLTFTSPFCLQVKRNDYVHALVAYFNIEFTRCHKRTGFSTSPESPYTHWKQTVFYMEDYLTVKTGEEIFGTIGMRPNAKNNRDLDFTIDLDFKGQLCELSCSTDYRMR
In short: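 PRMT1 (0.1 μM) was run with 10 μM AdoMet, 5 μM SAHH and 10 μM ThioGlo4 in 2.5 mM HEPES pH 7.0, 25 mM NaCl, 25 μM EDTA, 50 μM TCEP and 0.01% Triton X-100. Fluorescence (ex 400/em 465 nm) was monitored for 15 min. Assays were done in duplicate.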

PRMT6 = PRMT6 (Homo sapiens, UniProt Q96LA8); test: radioactive assay (Reaction Biology Corp.), inhibition of PRMT6
Chain of PRMT6 (Q96LA8 whole entry, species assumed): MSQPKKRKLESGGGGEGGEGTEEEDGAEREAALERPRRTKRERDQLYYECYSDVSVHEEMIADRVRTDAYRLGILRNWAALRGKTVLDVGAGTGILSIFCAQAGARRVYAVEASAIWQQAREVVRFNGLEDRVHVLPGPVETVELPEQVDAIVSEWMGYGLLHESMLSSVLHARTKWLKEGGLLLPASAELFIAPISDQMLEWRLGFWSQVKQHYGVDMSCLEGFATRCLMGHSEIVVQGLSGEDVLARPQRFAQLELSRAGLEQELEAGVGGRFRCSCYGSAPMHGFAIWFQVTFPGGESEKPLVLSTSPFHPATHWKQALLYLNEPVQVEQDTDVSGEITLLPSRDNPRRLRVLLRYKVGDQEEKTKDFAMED
Description: (§1) Next, the inhibition activity of the library was investigated for five PRMT members from type I PRMTs.
(§2) The PRMT 4, 6 and 8 methylation assays were performed by Reaction Biology corp.

PRMT3/4/5 = test: inhibition of PRMT3/4/5 (summary); settings: range over PRMT3/4/5
Description: The selectivity of compounds YD1113 and YD1290 on PRMTs were performed by Reaction Biology Corp.

PRMT4 [3] = test: radioactive assay (Reaction Biology Corp.), inhibition of PRMT4
Description: as §1, §2

PRMT4 [4] = molecular target: T2, PRMT4 (Homo sapiens, UniProt Q86X55); test: as above
T2 sequence (Q86X55 1-608): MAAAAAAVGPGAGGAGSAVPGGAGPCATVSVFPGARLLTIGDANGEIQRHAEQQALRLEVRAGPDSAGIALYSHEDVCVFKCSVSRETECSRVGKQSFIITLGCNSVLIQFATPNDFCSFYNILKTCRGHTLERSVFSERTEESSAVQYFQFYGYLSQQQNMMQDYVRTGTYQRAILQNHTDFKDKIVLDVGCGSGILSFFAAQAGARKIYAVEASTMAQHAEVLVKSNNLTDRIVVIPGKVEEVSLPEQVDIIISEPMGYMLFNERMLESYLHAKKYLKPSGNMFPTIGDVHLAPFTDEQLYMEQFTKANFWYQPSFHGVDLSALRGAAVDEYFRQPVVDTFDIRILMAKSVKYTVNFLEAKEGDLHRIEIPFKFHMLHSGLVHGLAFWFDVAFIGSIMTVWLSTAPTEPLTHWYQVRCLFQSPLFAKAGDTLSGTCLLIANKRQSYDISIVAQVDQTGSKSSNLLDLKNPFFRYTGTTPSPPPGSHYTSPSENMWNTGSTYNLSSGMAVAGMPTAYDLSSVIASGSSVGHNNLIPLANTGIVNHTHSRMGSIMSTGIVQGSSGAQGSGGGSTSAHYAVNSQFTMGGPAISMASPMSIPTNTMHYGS
Description: as §1, §2

## Nc1ncnc2c1ncn2[C@@H]1O[C@H](CSCCNC(=O)NCc2ccccc2)[C@@H](O)[C@H]1O [Compound 7a, 1-(2-((((2S,3S,4R,5R)-5-(6-amino-9H-purin-9-yl)-3,4-dihydroxytetrahydrofuran-2-yl)methyl)thio)ethyl)-3-benzylurea]
PRMT3 [1]
  IC50: 0.52 ± 0.07 µM
PRMT3 [2]; H4-21 15 to 240 μM, SAM 30 μM fixed
  inhibition mechanism vs peptide substrate, PRMT3: noncompetitive to the peptide substrate
PRMT3 [2]; SAM 30 to 240 μM, H4-21 30 μM fixed
  inhibition mechanism vs SAM, PRMT3: competitive to SAM
PRMT1
  inhibition at 10 µM: 30%
PRMT6
  inhibition at 10 µM: 89%
PRMT3/4/5
  IC50: 138 to 351 nM
PRMT4 [3]
  IC50: 140 ± 13 nM
PRMT4 [4]
  inhibition at 10 µM: 97%
